Source: paper PMC7139504, “New Arylethanolimidazole Derivatives as HO-1 Inhibitors with Cytotoxicity against MCF-7 Breast Cancer Cells” (International Journal of Molecular Sciences, 2020)
Several values for one entry are separate records, joined by “and”; a condition that tells them apart may be missing. Identical values can stand only once. Like-named read-outs stand apart in the source and are kept apart here.

Legend:
HO-1 [1] = target: T1, HO-1 (Rattus norvegicus, UniProt P06762); test: HO-1 inhibition, bilirubin formation in rat spleen microsomal fraction; type: biochemical
T1 construct: selected in order to use the most native (i.e., closest to in vivo) forms of HO-1 and HO-2; from tissue; host or cells: spleen microsomal fraction of male Sprague-Dawley rats
T1 sequence (P06762 1-289): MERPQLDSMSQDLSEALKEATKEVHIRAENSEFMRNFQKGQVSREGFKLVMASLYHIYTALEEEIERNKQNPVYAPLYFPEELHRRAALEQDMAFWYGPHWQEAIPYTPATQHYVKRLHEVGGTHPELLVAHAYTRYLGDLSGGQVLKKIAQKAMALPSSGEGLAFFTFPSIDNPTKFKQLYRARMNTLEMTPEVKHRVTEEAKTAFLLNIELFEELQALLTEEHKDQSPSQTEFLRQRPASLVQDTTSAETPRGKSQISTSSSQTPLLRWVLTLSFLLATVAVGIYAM
Experimental: (§1) HO-1 and HO-2 were obtained from the microsomal fractions of rat spleen and rat brain, respectively. Enzymatic activity of both isoforms was determined by measuring the bilirubin formation using the difference in absorbance at 464–530 nm, as described in the experimental section. Compounds A–C, and tin protoporphyrin (SnPP) were used as reference substances. Inhibition of enzymes activity is expressed as IC50 (μM), and results are resumed in Table 1.
The dominance of HO-1 protein in the rat spleen and of HO-2 in the rat brain has been well documented; thus, the microsomal fraction, prepared by differential centrifugation, from rat spleen and brain have been used to obtain HO-1 and HO-2. These particular microsomal preparations were selected in order to use the most native (i.e., closest to in vivo) forms of HO-1 and HO-2. Spleen and brain microsomal fractions, from Sprague–Dawley rats, were prepared following a published procedure. All experiments complied with current Italian law and met the guidelines of the Institutional Animal Care and Use Committee of MINISTRY OF HEALTH (Directorate General for Animal Health and Veterinary Medicines, Italy). Male Sprague–Dawley albino rats (150 g body weight and age 45 d) were used. Rats had free access to water, and they were maintained at room temperature with a natural photoperiod (12 h:12 h light–dark cycle). For measuring HO-1 and HO-2 activities, each rat was sacrificed and their spleen and brain were excised and weighed. A homogenate (15%, w/v) of spleens and brains pooled from four rats was prepared in ice-cold HO-homogenizing buffer (50 mM Tris buffer, pH 7.4, containing 0.25 M sucrose) using a Potter–Elvehjem homogenizing system with a Teflon pestle. The microsomal fraction of rat spleen and brain homogenate was obtained by centrifugation at 10,000× g for 20 min at 4 °C, followed by centrifugation of the supernatant at 100,000× g for 60 min at 4 °C. The 100,000× g pellet (microsomes) was resuspended in 100 mM potassium phosphate buffer, pH 7.8, containing 2 mM MgCl2 with a Potter–Elvehjem homogenizing system. Equal aliquots of the rat spleen and brain microsomal fractions were prepared, placed into microcentrifuge tubes, and stored at −80 °C for up to 2 months. Finally, the Lowry method was used to determine the protein concentration of the microsomal fraction.
Liver cytosol has been used as a source of biliverdin reductase. Rat liver was perfused through the hepatic portal vein with cold 0.9% NaCl, then it was cut and flushed with 2 × 20 mL of ice-cold PBS to remove all of the blood. Liver tissue was homogenized in three volumes of a solution containing 1.15% KCl w/v and Tris buffer 20 mM, pH 7.8 on ice. Homogenates were centrifuged at 10,000× g for 20 min at 4 °C. The supernatant was decanted and centrifuged at 100,000× g for 1 h at 4 °C to sediment the microsomes. The 100,000× g supernatant was saved and then stored in small amounts at −80 °C after its protein concentration was measured.
The measurement of bilirubin formation, using the difference in absorbance at 464–530 nm, was used to determine the HO-1 and HO-2 activities, as previously described by Ryter et al.. Reaction mixtures (500 μL) consisted of 20 mM Tris–HCl, pH 7.4, (1 mg/mL) microsomal extract, 0.5–2 mg/mL biliverdin reductase, 1 mM NADPH, 2 mM glucose 6-phosphate (G6P), 1 U G6P dehydrogenase, 25 μM hemin, and 10 μL of DMSO (or the same volume of DMSO solution of test or reference compounds to a final concentration of 100, 10, and 1 μM). Incubations were carried out for 60 min at 37 °C in a circulating water bath in the dark. One volume of chloroform was added to stop the reactions. Then, the chloroform phase was recovered, and the amount of bilirubin, which was formed has been measured with a double-beam spectrophotometer as OD464–530 nm (extinction coefficient, 40 mM/cm^−1 for bilirubin). […]

HO-2 [2] = target: T2, HO-2 (Rattus norvegicus, UniProt P23711); test: HO-2 inhibition, bilirubin formation in rat brain microsomal fraction; type: biochemical; settings: mean ± SD of three determinations
T2 construct: selected in order to use the most native (i.e., closest to in vivo) forms of HO-1 and HO-2; from tissue; host or cells: brain microsomal fraction of male Sprague-Dawley rats
T2 sequence (P23711 1-315): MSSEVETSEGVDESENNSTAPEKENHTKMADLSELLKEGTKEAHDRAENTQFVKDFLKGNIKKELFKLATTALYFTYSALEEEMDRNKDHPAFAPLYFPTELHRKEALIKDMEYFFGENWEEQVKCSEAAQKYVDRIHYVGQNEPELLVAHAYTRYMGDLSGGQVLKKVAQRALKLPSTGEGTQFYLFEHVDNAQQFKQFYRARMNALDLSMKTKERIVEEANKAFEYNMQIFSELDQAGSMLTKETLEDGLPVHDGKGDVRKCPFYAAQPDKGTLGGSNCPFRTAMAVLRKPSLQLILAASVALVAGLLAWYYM
Experimental: as §1
The dominance of HO-1 protein in the rat spleen and of HO-2 in the rat brain has been well documented; thus, the microsomal fraction, prepared by differential centrifugation, from rat spleen and brain have been used to obtain HO-1 and HO-2. These particular microsomal preparations were selected in order to use the most native (i.e., closest to in vivo) forms of HO-1 and HO-2. Spleen and brain microsomal fractions, from Sprague–Dawley rats, were prepared following a published procedure. All experiments complied with current Italian law and met the guidelines of the Institutional Animal Care and Use Committee of MINISTRY OF HEALTH (Directorate General for Animal Health and Veterinary Medicines, Italy). Male Sprague–Dawley albino rats (150 g body weight and age 45 d) were used. Rats had free access to water, and they were maintained at room temperature with a natural photoperiod (12 h:12 h light–dark cycle). For measuring HO-1 and HO-2 activities, each rat was sacrificed and their spleen and brain were excised and weighed. […]
Liver cytosol has been used as a source of biliverdin reductase. […] The 100,000× g supernatant was saved and then stored in small amounts at −80 °C after its protein concentration was measured.
The measurement of bilirubin formation, using the difference in absorbance at 464–530 nm, was used to determine the HO-1 and HO-2 activities, as previously described by Ryter et al.. […] Then, the chloroform phase was recovered, and the amount of bilirubin, which was formed has been measured with a double-beam spectrophotometer as OD464–530 nm (extinction coefficient, 40 mM/cm^−1 for bilirubin). […]

MCF-7 cells = test: Sulforhodamine B (SRB) cytotoxicity assay, MCF-7; type: cell-based; settings: Homo sapiens, MCF7, hormone-sensitive breast cancer cells, 10–100 μM, 48 h, mean ± SEM (n = 3), read-out: IC50 cytotoxicity against MCF-7
Experimental: (§2) Both cell lines were treated with 10–100 μM of compound 5a for 48 h. Cell survival at different concentrations was calculated compared to untreated controls. At the end of treatment, cell number was determined using the sulforhodamine B (SRB) colorimetric assay based on the measurement of cellular protein content.
(§3) MCF-7 and MDA-MB-231 cells were maintained in complete growth media (DMEM/Ham’s F12 supplemented with 10% fetal bovine serum, 2 mM L-glutamine, 100 units/mL penicillin, 100 units/mL of streptomycin, and 2.2 g/L of NaHCO3) at 37 °C in a humidified atmosphere of 5% CO2. For all procedures, cells were harvested using TrypLE Express (Life Technologies, Auckland, New Zealand).
(§4) Cells were seeded into 96-well plates and incubated for 24 h to test the cytotoxic effect of the HO inhibitor. After 24 h incubation, different concentrations of the HO inhibitor were administered for 48 h. Following the incubation, cells were fixed using 10% trichloro-acetic acid (TCA). The cytotoxicity was determined using the sulforhodamine B assay was used, as previously described, to determine the cytotoxicity of the HO-1 inhibitor. IC50 (the concentration required to decrease the cell number by 50%) was determined by non-linear regression using Graphpad prism 6 software. Treatments were performed in triplicate, and data represent the mean of three independent experiments.

MDA-MB-231 cells = test: Sulforhodamine B (SRB) cytotoxicity assay, MDA-MB-231; type: cell-based; settings: hormone-resistant breast cancer cells, 10–100 μM, 48 h
Experimental: as §2, §3, §4

HO-2 [3] = target: T2, HO-2; settings: reference compounds; data taken from ref 32; read-out: IC50 (μM) ± SD HO-2; cited from earlier work
HO-1 [4] = target: T1, HO-1; settings: reference compounds; data taken from ref 32; read-out: IC50 (μM) ± SD HO-1; cited from earlier work
[5] = rat spleen microsomal fraction, mean ± SD of three determinations, read-out: IC50 (μM) ± SD HO-1
[6] = experimental values repeated in the docking table, read-out: IC50 exp. (μM) HO-1

Row | SMILES | IC50 (HO-1 [1]; [5]) [µM] | IC50 (HO-1 [1]; [6]) [µM] | melting point [°C] | further results
1 | O=C(Cn1ccnc1)c1cccc(Br)c1 [Compound 4g] | 38.2 ± 1.8 | – | – | –
2 | Clc1ccc(COC(Cn2ccnc2)c2cccc(Br)c2)cc1 (centres unmarked) [Compound 6a, 1-(2-(3-bromophenyl)-2-((4-chlorobenzyl)oxy)ethyl)-1H-imidazole] | > 100 | > 100 | – | –
3 | Brc1cccc(CCn2ccnc2)c1 [Compound 2a, 1-(3-bromophenethyl)-1H-imidazole] | 100 ± 5.6 | 100 | – | –
4 | C=Cc1c2[n-]c(c1C)/C=c1\[n-]/c(c(C)c1C=C)=C\c1[n-]c(c(CCC(=O)O)c1C)/C=c1\[n-]c(c(C)c1CCC(=O)O)=C2.[Sn+4] [SnPP, tin protoporphyrin, reference compound] | 0.58 ± 0.03 | – | – | IC50 (HO-2 [2]): 0.36 ± 0.01 µM
5 | OC(Cn1ccnc1)c1ccc(OCc2ccccc2Br)cc1 (centres unmarked) [Compound 5d, 1-[4-[(2-bromobenzyl)oxy]phenyl]-2-(1H-imidazol-1-yl)ethanol] | 9 ± 2.2 | 9 ± 2.2 | 120 to 126 | IC50 (HO-2 [2]): 15.8 ± 1.6 µM
6 | OC(Cn1ccnc1)c1cccc(OCc2cccc(Br)c2)c1 (centres unmarked) [Compound 5e, 1-[3-[(3-bromobenzyl)oxy]phenyl]-2-(1H-imidazol-1-yl)ethanol] | 46 ± 1.9 | 46 ± 1.9 | 93.5 to 99.4 | –
7 | Brc1ccc(COc2ccc(CCn3ccnc3)cc2)cc1 [Compound 2b, 1-(4-((4-bromobenzyl)oxy)phenethyl)-1H-imidazole] | 62.9 ± 3.2 | 62.9 ± 3.2 | 147.5 to 149.7 | –
8 | O=C(Cn1ccnc1)c1cccc(-c2ccccc2)c1 [Compound 4h] | 19.9 ± 2.5 | – | – | –
9 | OC(Cn1ccnc1)c1cccc(OCc2ccc(Br)cc2)c1 (centres unmarked) [Compound 5a, 1-[3-[(4-bromobenzyl)oxy]phenyl]-2-(1H-imidazol-1-yl)ethanol] | 0.9 ± 0.02 | 0.9 ± 0.02 | 123 to 126 | IC50 (MCF-7 cells): 47.4 ± 6.8 µM; IC50 (HO-2 [2]): 54 µM and 53.6 µM; cytotoxicity against MDA-MB-231 (MDA-MB-231 cells): no cytotoxicity
10 | OC(Cn1ccnc1)c1cccc(OCc2ccccc2Br)c1 (centres unmarked) [Compound 5f, 1-[3-[(2-bromobenzyl)oxy]phenyl]-2-(1H-imidazol-1-yl)ethanol] | 44 ± 1.8 | 44 ± 1.8 | 132 to 140 | –
11 | OC(Cn1ccnc1)c1ccc(OCc2cccc(Br)c2)cc1 (centres unmarked) [Compound 5c, 1-[4-[(3-bromobenzyl)oxy]phenyl]-2-(1H-imidazol-1-yl)ethanol] | 41 ± 1.5 | 41 ± 1.5 | 120.1 to 123 | –
12 | Clc1ccc(Cl)c(COC(Cn2ccnc2)c2cccc(Br)c2)c1 (centres unmarked) [Compound 6b, 1-(2-(3-bromophenyl)-2-((2,5-dichlorobenzyl)oxy)ethyl)-1H-imidazole] | 66 ± 3.2 | 66 ± 3.2 | – | –
13 | OC(Cn1ccnc1)c1cccc(-c2ccccc2)c1 (centres unmarked) [B] | – | – | – | IC50 (HO-2 [3]): > 100 µM; IC50 (HO-1 [4]): 0.95 µM
14 | c1ccc(-c2cccc(CCn3ccnc3)c2)cc1 [Compound 2c, 1-(2-((1,1’-biphenyl)-3-yl)ethyl)-1H-imidazole] | 46.8 ± 1.8 | 46.8 ± 1.8 | – | –
15 | OC(Cn1ccnc1)c1ccc(OCc2ccc(Br)cc2)cc1 (centres unmarked) [C] | – | – | – | IC50 (HO-2 [3]): > 100 µM
16 | O=C(Cn1ccnc1)c1ccc(OCc2ccc(Br)cc2)cc1 [Compound 4i] | 55.46 ± 0.05 | – | – | –
17 | OC(Cn1ccnc1)c1ccccc1OCc1ccc(Br)cc1 (centres unmarked) [Compound 5b, 1-[2-[(4-bromobenzyl)oxy]phenyl]-2-(1H-imidazol-1-yl)ethanol] | ≥ 100 | > 100 | 121.5 to 130 | –
